# Molecular target: PC-PLC (phosphatidylcholine-specific phospholipase C) (Bacillus cereus, UniProt P09598)
# Experiment: fluorescence of dequenched Pyro-PtdEtn-BHQ hydrolysis, initial rate
# Format: biochemical
# Sequence of PC-PLC (phosphatidylcholine-specific phospholipase C) (P09598 39-283 limits assumed): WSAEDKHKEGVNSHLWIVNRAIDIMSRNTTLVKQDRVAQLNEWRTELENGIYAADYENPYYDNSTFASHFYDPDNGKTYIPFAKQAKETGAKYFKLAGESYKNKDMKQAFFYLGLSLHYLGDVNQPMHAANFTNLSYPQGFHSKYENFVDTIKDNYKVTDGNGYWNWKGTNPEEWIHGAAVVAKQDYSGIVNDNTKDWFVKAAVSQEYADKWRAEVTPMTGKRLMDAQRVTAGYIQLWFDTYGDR
smiles,measurement,value
S=C(S)OC1CC2CC1C1CCCC21 (stereo not shown) [D609],IC50,34 ± 8 µM

# Source: publication PMC3292874 (Bioconjugate Chemistry, 2011)
